Converted amounts (≈) assume the structure as drawn. Read-outs that look alike come from different tables or passages of the source.
Assay: water solubility of anastrozole
Type: physicochemical

CC(C)(C#N)c1cc(Cn2cncn2)cc(C(C)(C)C#N)c1 [anastrozole, Anastrozole] showed a solubility (at 25° C., read-out: water solubility) of 530 µg/mL (≈ 1810 µM) and a solubility (read-out: aqueous solubility) of 530 µg/mL (≈ 1810 µM).

— patent US20080248077A1, “Formulation” (ASTRAZENECA AB, priority 2005, published 2008)
